How the values were obtained:
[1] = tested on: S. mansoni newly transformed schistosomula (NTS); experiment: Schistosomicidal activity ex vivo, NTS (Cell Titer Glo); type: cell-based; conditions: S. mansoni NTS
Description: Oncomelania hupensis subsp. hupensis, Chinese strain, infected with S. japonicum, Chinese strain, and Biomphalaria glabrata, strain NMRI, infected with S. mansoni, strain NMRI, were provided by the NIAID Schistosomiasis Resource Center for distribution through BEI Resources, NIAID, NIH. After infections were patent, snails were exposed to bright light for 1 hr to obtain cercariae. Cercariae were mechanically transformed to schistosomula. Briefly, cercariae were placed on ice for 30 min and then centrifuged at 350 × g for 10 mins. The supernatant was decanted and 2 ml of serum-free M199 medium was added to cercarial pellets and vortexed for 1 min until cercarial tails were detached. NTS were purified by layering on 4 °C Percoll gradient suspension containing Eagle’s minimum essential medium, penicillin-streptomycin (10,000 U per ml penicillin/10,000 U per ml streptomycin), and 1 M HEPES in 0.85% NaCl with cercariae suspension and centrifuged at 500 × g for 15 min. Cercarial pellets were resuspended and washed thrice in serum-free M199 medium and collected at 100 × g for 5 min. NTS (240) were transferred to U-bottom 96 well assay plates containing 200 µl of M199 medium supplemented with 5.5 mM D-glucose, penicillin-streptomycin and 5% heat inactivated fetal bovine serum and incubated at 37 °C in a 5% CO2 incubator overnight.
DMSO formulated compounds were diluted with phenol red free M199 medium or RPMI medium for NTS or juvenile and adult worms, respectively, at <1% DMSO final concentrations. NTS, juvenile and adult worms from overnight cultures were tested against compounds in triplicate. Controls were treated with DMSO alone or 5 µM AF as a positive control in appropriate medium. Worm viability was assessed at 24 or 72 h by measuring ATP content of worms using Cell Titer Glo Assay (Promega) as described. Schistosome viabilities in the presence of the compounds were assessed using this formula: % Viability = Averages of Test / Averages of DMSO Control x 100.

S. mansoni TGR = molecular target: T1, S. mansoni TGR (Schistosoma mansoni, UniProt Q962Y6); experiment: S. mansoni TGR enzyme inhibition (DTNB reduction); type: biochemical; conditions: for % inhibition: TGR
T1 construct: made in house
T1 sequence (Q962Y6 1-598): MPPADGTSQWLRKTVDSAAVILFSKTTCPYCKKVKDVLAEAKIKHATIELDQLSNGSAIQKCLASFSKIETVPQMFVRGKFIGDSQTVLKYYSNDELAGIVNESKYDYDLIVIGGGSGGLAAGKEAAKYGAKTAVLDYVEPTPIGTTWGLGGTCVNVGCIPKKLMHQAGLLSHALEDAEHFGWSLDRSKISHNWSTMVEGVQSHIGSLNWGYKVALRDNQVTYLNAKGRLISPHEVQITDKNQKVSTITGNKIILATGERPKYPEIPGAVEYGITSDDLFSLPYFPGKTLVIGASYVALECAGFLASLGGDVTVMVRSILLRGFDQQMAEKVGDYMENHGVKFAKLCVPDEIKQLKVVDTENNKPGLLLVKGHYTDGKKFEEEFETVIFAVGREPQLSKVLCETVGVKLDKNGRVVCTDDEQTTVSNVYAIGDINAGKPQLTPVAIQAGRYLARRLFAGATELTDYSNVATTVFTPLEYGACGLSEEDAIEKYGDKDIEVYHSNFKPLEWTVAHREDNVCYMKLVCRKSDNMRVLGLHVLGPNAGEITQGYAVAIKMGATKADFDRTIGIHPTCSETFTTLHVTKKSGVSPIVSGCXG
Description: (§1) Recombinant TGR, human TrxR1, B. malayi (Bm)TrxR and human GR proteins were expressed and purified as described[20],[69],[79]. The codon optimized sequence for P. falciparum (PfTrxR, https://www.ncbi.nlm.nih.gov/protein/CAA60574.1/) with an N-terminal 6-His tag was synthesized and inserted into pET15b (GenScript) and expressed in BL21 (DE3) cells and purified as described for human GR[20]. TGR and TrxR enzyme inhibition assays were performed in triplicate at 25 °C as described[20] in 0.1 M potassium phosphate (pH 7.4), 10 mM EDTA, 100 µM NADPH and 0.01% Tween-20. […] The reaction was started with addition of an equal volume of DTNB (6 mM) and NADPH (100 µM) and the increase in A412 during the first 3 min was recorded. […] The reaction was preincubated for 15 min. Activity was initiated with the addition of 1 mM GSSG and 100 μM NADPH and initial rates of NADPH oxidation were monitored at 340 nm. The reactions were done in triplicate. The IC50 was calculated in GraphPad Prism.

Vero cells = experiment: Cytotoxicity in mammalian cells (Cell Titer Glo); type: cell-based; conditions: Vero cells
Description: Following overnight incubation, formulated DMSO-compound stock solutions were diluted with DMEM at <1% DMSO final concentrations. […] Vero cells treated similarly with different concentrations of PZQ, MZM and AF (Cayman Chemicals) were used as positive controls.

Human GR = molecular target: T2, Human GR (Homo sapiens, UniProt P00390); experiment: Human GR enzyme inhibition (GSSG reduction, NADPH oxidation); type: biochemical; conditions: for % inhibition: hGR
T2 construct: made in house
T2 sequence (P00390 44-522): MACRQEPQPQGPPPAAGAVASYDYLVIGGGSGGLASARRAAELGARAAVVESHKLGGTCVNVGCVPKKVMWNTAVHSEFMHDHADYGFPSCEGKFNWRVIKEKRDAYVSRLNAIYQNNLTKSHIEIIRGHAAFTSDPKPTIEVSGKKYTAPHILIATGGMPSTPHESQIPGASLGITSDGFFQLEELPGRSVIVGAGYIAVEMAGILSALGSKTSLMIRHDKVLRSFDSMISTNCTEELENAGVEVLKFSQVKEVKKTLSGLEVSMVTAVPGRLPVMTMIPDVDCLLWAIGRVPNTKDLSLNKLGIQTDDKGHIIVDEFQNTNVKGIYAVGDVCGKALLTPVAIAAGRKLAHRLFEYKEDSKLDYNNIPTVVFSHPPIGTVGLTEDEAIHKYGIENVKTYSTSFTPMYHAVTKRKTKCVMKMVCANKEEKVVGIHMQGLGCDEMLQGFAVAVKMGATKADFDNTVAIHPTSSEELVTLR
Description: Recombinant TGR, human TrxR1, B. malayi (Bm)TrxR and human GR proteins were expressed and purified as described[20],[69],[79]. The codon optimized sequence for P. falciparum (PfTrxR, https://www.ncbi.nlm.nih.gov/protein/CAA60574.1/) with an N-terminal 6-His tag was synthesized and inserted into pET15b (GenScript) and expressed in BL21 (DE3) cells and purified as described for human GR[20]. TGR and TrxR enzyme inhibition assays were performed in triplicate at 25 °C as described[20] in 0.1 M potassium phosphate (pH 7.4), 10 mM EDTA, 100 µM NADPH and 0.01% Tween-20. TGR, human TrxR1 and BmTrxR (all at 4 nM) and PfTrxR (50 nM) were preincubated with the compounds for 15 min. The reaction was started with addition of an equal volume of DTNB (6 mM) and NADPH (100 µM) and the increase in A412 during the first 3 min was recorded. […] […] Activity was initiated with the addition of 1 mM GSSG and 100 μM NADPH and initial rates of NADPH oxidation were monitored at 340 nm. The reactions were done in triplicate. The IC50 was calculated in GraphPad Prism.

Human TrxR1 = molecular target: T3, Human TrxR1 (Homo sapiens, UniProt Q16881); experiment: Human TrxR1 enzyme inhibition (DTNB reduction); type: biochemical; conditions: 15 minutes pre-incubation
T3 construct: made in house
T3 sequence (Q16881 1-499 isoform Q16881-5): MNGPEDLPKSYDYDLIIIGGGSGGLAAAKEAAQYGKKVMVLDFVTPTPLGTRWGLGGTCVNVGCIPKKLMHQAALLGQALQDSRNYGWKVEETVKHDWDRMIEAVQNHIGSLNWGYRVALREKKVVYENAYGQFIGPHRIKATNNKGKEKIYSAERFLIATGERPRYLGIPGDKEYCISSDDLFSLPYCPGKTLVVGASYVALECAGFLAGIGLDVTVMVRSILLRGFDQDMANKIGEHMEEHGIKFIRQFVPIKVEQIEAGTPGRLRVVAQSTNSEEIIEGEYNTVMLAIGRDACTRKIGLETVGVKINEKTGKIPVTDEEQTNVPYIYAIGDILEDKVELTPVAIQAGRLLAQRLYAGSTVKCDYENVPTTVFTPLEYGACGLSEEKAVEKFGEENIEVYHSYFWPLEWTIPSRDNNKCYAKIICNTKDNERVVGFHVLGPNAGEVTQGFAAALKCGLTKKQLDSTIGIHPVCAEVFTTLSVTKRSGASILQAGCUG
Description: as §1

[2] = 15 minutes pre-incubation, compound 15 µM
[3] = 15 minutes pre-incubation, compound 30 µM
[4] = 15 minutes pre-incubation, compound 66.7 µM
[5] = 6 hours pre-incubation, compound 15 µM
[6] = 6 hours pre-incubation, compound 30 µM
[7] = 6 hours pre-incubation, compound 66.7 µM
[8] = 15 minutes pre-incubation, 15 µM
[9] = 15 minutes pre-incubation, 30 µM
[10] = 15 minutes pre-incubation, 66.7 µM

Cc1oc(C2CCCCC2)nc1CN[C@@H]1C[C@@H]2C[C@H]([C@H]1C)C2(C)C [C4]
% viability ([1]; Conc. 1 µM): 51.9254% | % viability ([1]; Conc. 5 µM): 22.4326% | % viability ([1]; Conc. 15 µM): 2.552% | % viability ([1]; Conc. 30 µM): 0.3078% | % viability ([1]; Conc. 50 µM): 0.1166% | % inhibition (S. mansoni TGR; [2]): 4.307% | % inhibition (S. mansoni TGR; [3]): 7.284% | % inhibition (S. mansoni TGR; [4]): 12.4488% | % inhibition (S. mansoni TGR; [5]): 20.5703% | % inhibition (S. mansoni TGR; [6]): 43.128% | % inhibition (S. mansoni TGR; [7]): 68.6238% | % viability (Vero cells; Conc. 5 µM): 99.7864% | % viability (Vero cells; Conc. 10 µM): 99.8193% | % viability (Vero cells; Conc. 25 µM): 95.3884% | % viability (Vero cells; Conc. 35 µM): 94.379% | % viability (Vero cells; Conc. 50 µM): 91.2714% | % inhibition (Human GR; [2]): -0.5314% | % inhibition (Human GR; [3]): -1.471% | % inhibition (Human GR; [4]): -0.894% | % inhibition (Human GR; [5]): -2.859% | % inhibition (Human GR; [6]): -0.4408% | % inhibition (Human GR; [7]): -0.3554%

C[C@@H]1[C@H]2C[C@@H](C[C@H]1NC(=O)Cc1nc3ccccc3n1C1CCCCC1)C2(C)C [C10]
hsTrxR % inhibition (Human TrxR1; 1 µM): 3.958% | hsTrxR % inhibition (Human TrxR1; 5 µM): 29.0366% | hsTrxR % inhibition (Human TrxR1; 15 µM): 63.1349% | hsTrxR % inhibition (Human TrxR1; 30 µM): 85.1161% | hsTrxR % inhibition (Human TrxR1; 66.7 µM): 92.1898% | TGR % inhibition (S. mansoni TGR; 15 minutes pre-incubation, 1 µM): 1.833% | TGR % inhibition (S. mansoni TGR; 15 minutes pre-incubation, 5 µM): 5.968% | TGR % inhibition (S. mansoni TGR; [8]): 42.2698% | TGR % inhibition (S. mansoni TGR; [9]): 76.1929% | TGR % inhibition (S. mansoni TGR; [10]): 82.1691% | hGR % inhibition (Human GR; [8]): -6.32% | hGR % inhibition (Human GR; [9]): -6.329% | hGR % inhibition (Human GR; [10]): 1.247% | hGR % inhibition (Human GR; 6 hours pre-incubation, 15 µM): -1.804% | hGR % inhibition (Human GR; 6 hours pre-incubation, 30 µM): -1.476% | hGR % inhibition (Human GR; 6 hours pre-incubation, 66.7 µM): -1.27%

Source: paper PMC10287695, “Non-covalent inhibitors of thioredoxin glutathione reductase with schistosomicidal activity in vivo” (Nature Communications, 2023)
